Laboratory results reported in PMC6199744, “Development of Chemical Proteomics for the Folateome and Analysis of the Kinetoplastid Folateome” (ACS Infectious Diseases, 2018).
Several values for one entry are separate records, joined by “and”; a condition that tells them apart may be missing. Equal entries are not always repeated. Where two headings read alike, the source gives them in different places.

Test system: T. brucei lysate proteins
Type: binding, Trypanosoma brucei

Nc1nc2c(c(=O)[nH]1)N(C=O)C(CNc1ccc(C(=O)N[C@@H](CCC(=O)O)C(=O)O)cc1)CN2 (stereo partly drawn) [LEU, leucovorin]
fold change vs vehicle control: 0.89 and 1.1 and 1.13
fold change (protein CZB00000046.1 HA-UBIQUITIN, vehicle control = 1): 0.69
fold change (protein CZT00008884.1 […]-ASSOCIATED GENE 3 (ESAG3) PROTEIN, vehicle control = 1): 1.21
fold change (protein CZT00018965.1 RETRO[…] (RHS) PROTEIN 1, vehicle control = 1): 1.3
fold change vs vehicle control (protein TB09.160.3270 ATP-DEPENDENT DEAD BOX HELICASE, PUTATIVE, vehicle control = 1): 1.53
fold change (protein TB09.160.3710 PRO[…] NUCLEAR ANTIGEN (PCNA), PUTATIVE, vehicle control = 1): 1
fold change vs vehicle control (protein TB09.160.4200 60S ACIDIC RIBOSOMAL PROTEIN, PUTATIVE, vehicle control = 1): 1.11
fold change vs vehicle control (protein TB09.160.4250 TR[…], vehicle control = 1): 1.26
fold change (protein TB09.211.3540 GLYCEROL KINASE, GLYCOSOMAL, vehicle control = 1): 1.39
fold change (protein TB11.01.0450 PROTEIN PHOSPHATASE 1, PUTATIVE, vehicle control = 1): 0.92
fold change (protein TB11.01.1690 HY[…], CONSERVED, vehicle control = 1): 1.4
fold change vs vehicle control (protein TB11.01.2560 40S RIBOSOMAL PROTEIN SA, PUTATIVE, vehicle control = 1): 0.87
fold change (protein TB11.01.3560 VACUOLAR ATP SYNTHASE SUBUNIT B, PUTATIVE, vehicle control = 1): 0.9
fold change vs vehicle control (protein TB11.01.4370 HY[…], CONSERVED, vehicle control = 1): 1.1
fold change (protein TB11.01.5350 PROFILIN, vehicle control = 1): 1.27
fold change (protein TB11.01.8740 PROTEIN PHOSPHATASE 4, PUTATIVE, vehicle control = 1): 0.73
fold change vs vehicle control (protein TB11.02.1135 DYNEIN LIGHT CHAIN, PUTATIVE, vehicle control = 1): 1.39
fold change vs vehicle control (protein TB11.02.2040 HY[…], CONSERVED (ALBA-Domain Protein), vehicle control = 1): 1.42
fold change vs vehicle control (protein TB11.02.2510 GUANINE NUCLEOTIDE-BINDING BETA SUBUNIT-LIKE PROTEIN, vehicle control = 1): 0.98
fold change (protein TB11.02.2960 MIT[…] PROTEIN, PUTATIVE, vehicle control = 1): 0.69
fold change vs vehicle control (protein TB11.02.4170 40S RIBOSOMAL PROTEIN S5, PUTATIVE, vehicle control = 1): 1.44
fold change vs vehicle control (protein TB11.03.0250 C[…], vehicle control = 1): 1.92
fold change vs vehicle control (protein TB11.03.0530 HY[…], CONSERVED (hy[…] SCD6.10), vehicle control = 1): 0.99
fold change vs vehicle control (protein TB427TMP.01.0480 HY[…], CONSERVED, vehicle control = 1): 1.07
fold change (protein TB427TMP.01.1470 60S RIBOSOMAL PROTEIN L10A, PUTATIVE, vehicle control = 1): 0.96
fold change vs vehicle control (protein TB427TMP.01.1680 POLYUBIQUITIN, PUTATIVE, vehicle control = 1): 1.44
fold change (protein TB427TMP.01.2460 HY[…], CONSERVED, vehicle control = 1): 0.97
fold change vs vehicle control (protein TB427TMP.01.3370 […] PROTEIN, PUTATIVE, vehicle control = 1): 1.11
fold change vs vehicle control (protein TB427TMP.01.4280 HY[…], CONSERVED, vehicle control = 1): 1.18
fold change (protein TB427TMP.01.4650 HY[…], CONSERVED, vehicle control = 1): 0.86
fold change vs vehicle control (protein TB427TMP.01.5680 HY[…], CONSERVED, vehicle control = 1): 1.44
fold change vs vehicle control (protein TB427TMP.01.5690 DRBD4, vehicle control = 1): 0.99
fold change (protein TB427TMP.01.5960 MIT[…] PROTEIN, PUTATIVE, vehicle control = 1): 0.85
fold change (protein TB427TMP.01.6180 HY[…], CONSERVED, vehicle control = 1): 0.75
fold change vs vehicle control (protein TB427TMP.01.6890 SMALL GTPASE, PUTATIVE, vehicle control = 1): 2.02
fold change (protein TB427TMP.01.7490 HY[…], CONSERVED, vehicle control = 1): 0.86
fold change vs vehicle control (protein TB427TMP.01.7530 HY[…], CONSERVED, vehicle control = 1): 1.1
fold change (protein TB427TMP.01.8390 HY[…], CONSERVED, vehicle control = 1): 0.84
fold change (protein TB427TMP.01.8570 DYNEIN LIGHT IN[…] D1BLIC, PUTATIVE, vehicle control = 1): 0.9
fold change (protein TB427TMP.02.0030 DYNEIN HEAVY CHAIN, PUTATIVE, vehicle control = 1): 0.83
fold change (protein TB427TMP.02.0460 NUCLEOPORIN, vehicle control = 1): 0.84
fold change (protein TB427TMP.02.0760 DYNEIN HEAVY CHAIN, PUTATIVE, vehicle control = 1): 0.55
fold change (protein TB427TMP.02.4100 PRETRA[…], ALPHA SUBUNIT, PUTATIVE, vehicle control = 1): 1.41
fold change vs vehicle control (protein TB427TMP.02.4300 HY[…], CONSERVED, vehicle control = 1): 1.07
fold change (protein TB427TMP.02.4550 HY[…], CONSERVED, vehicle control = 1): 0.97
fold change (protein TB427TMP.02.5660 HY[…], CONSERVED, vehicle control = 1): 0.76
fold change vs vehicle control (protein TB427TMP.02.5720 RIBONUCLEOSIDE-DIPHOSPHATE REDUCTASE LARGE CHAIN, vehicle control = 1): 0.95
fold change (protein TB427TMP.03.0150 HY[…], CONSERVED, vehicle control = 1): 0.88
fold change (protein TB427TMP.160.2370 HY[…], CONSERVED, vehicle control = 1): 0.95
fold change (protein TB427TMP.160.4310 GLUTAMATE DEHYDROGENASE, vehicle control = 1): 0.99
fold change vs vehicle control (protein TB427TMP.160.4560 ARGININE KINASE, vehicle control = 1): 2.29
fold change vs vehicle control (protein TB427TMP.160.4620 INOSITOL-1(OR 4)-MONOPHOSPHATASE, PUTATIVE, vehicle control = 1): 1.07
fold change vs vehicle control (protein TB427TMP.160.4630 HY[…], CONSERVED, vehicle control = 1): 1
fold change (protein TB427TMP.160.4770 PROTEIN KINASE, PUTATIVE, vehicle control = 1): 0.91
fold change (protein TB427TMP.160.4910 FLAVOPROTEIN MONOOXYGENASE, PUTATIVE, vehicle control = 1): 0.97
fold change (protein TB427TMP.160.5670 HY[…], CONSERVED, vehicle control = 1): 0.81
fold change (protein TB427TMP.211.2730 GIM5A PROTEIN, vehicle control = 1): 1.23
fold change vs vehicle control (protein TB427TMP.211.3140 HY[…], CONSERVED, vehicle control = 1): 1.57
fold change vs vehicle control (protein TB427TMP.211.3510 ATP-DEPENDENT DEAD/H RNA HELICASE, PUTATIVE, vehicle control = 1): 0.96
fold change vs vehicle control (protein TB427TMP.22.0003 PHOSPH[…], PUTATIVE, vehicle control = 1): 0.99
fold change (protein TB427TMP.46.0001 60S ACIDIC RIBOSOMAL SUBUNIT PROTEIN, PUTATIVE, vehicle control = 1): 0.96
fold change (protein TB427TMP.47.0011 HY[…], CONSERVED, vehicle control = 1): 0.89
fold change vs vehicle control (protein TB427TMP.55.0006 INTR[…] PROTEIN IFT88, vehicle control = 1): 1.07
fold change vs vehicle control (protein TB427TMP.57.0008 CALPAIN-LIKE PROTEIN, PUTATIVE, vehicle control = 1): 0.86
fold change vs vehicle control (protein TB427.01.120 RETRO[…] SPOT (RHS) PROTEIN, PUTATIVE, vehicle control = 1): 0.97
fold change (protein TB427.01.2570 COATOMER BETA SUBUNIT, vehicle control = 1): 0.97
fold change (protein TB427.01.420 RETRO[…] SPOT (RHS) PROTEIN, PUTATIVE, vehicle control = 1): 1.1
fold change vs vehicle control (protein TB427.02.3880 HET[…] RIBONUC[…]/F, PUTATIVE, vehicle control = 1): 1.3
fold change vs vehicle control (protein TB427.02.5800 SEDOHEPTULOSE-1,7-BISPHOSPHATASE, vehicle control = 1): 1.36
fold change vs vehicle control (protein TB427.02.6050 BETA PRIME COP PROTEIN, vehicle control = 1): 1.34
fold change (protein TB427.03.1790 PYRUVATE DEHYDROGENASE E1 BETA SUBUNIT, PUTATIVE, vehicle control = 1): 0.98
fold change vs vehicle control (protein TB427.03.3160 POLY(A) POLYMERASE, vehicle control = 1): 1.23
fold change vs vehicle control (protein TB427.03.3950 HY[…], CONSERVED, vehicle control = 1): 0.86
fold change vs vehicle control (protein TB427.03.4040 HY[…], CONSERVED (Ankyrinrepeat), vehicle control = 1): 3.1
fold change (protein TB427.04.1300 HY[…], CONSERVED, vehicle control = 1): 1.3
fold change vs vehicle control (protein TB427.04.1510 PHOSPHOLIPID-TRA[…], PUTATIVE, vehicle control = 1): 0.95
fold change vs vehicle control (protein TB427.04.1660 MIT[…] PROTEIN, PUTATIVE, vehicle control = 1): 1
fold change (protein TB427.04.310 HY[…], CONSERVED, vehicle control = 1): 0.93
fold change (protein TB427.04.420 PHOSPHATIDYLINOSITOL 3-KINASE (TOR2), vehicle control = 1): 0.74
fold change (protein TB427.04.450 COATOMER ALPHA SUBUNIT, PUTATIVE, vehicle control = 1): 1.1
fold change (protein TB427.04.5010 CALRETICULIN, PUTATIVE, vehicle control = 1): 2.06
fold change (protein TB427.04.5200 NUCLEOPORIN (NUP54/57), PUTATIVE, vehicle control = 1): 0.9
fold change (protein TB427.05.1210 SHORT-CHAIN DEHYDROGENASE, PUTATIVE, vehicle control = 1): 1.33
fold change vs vehicle control (protein TB427.05.1320 HY[…], CONSERVED, vehicle control = 1): 1.07
fold change vs vehicle control (protein TB427.05.1700 R[…] A 28 KDA SUBUNIT, PUTATIVE, vehicle control = 1): 1.31
fold change vs vehicle control (protein TB427.05.3260 HY[…], CONSERVED, vehicle control = 1): 0.99
fold change (protein TB427.05.3400 CALCIUM-TRA[…]-TYPE ATPASE, vehicle control = 1): 1.28
fold change vs vehicle control (protein TB427.05.4560 GUANINE DEAMINASE, PUTATIVE, vehicle control = 1): 0.95
fold change vs vehicle control (protein TB427.06.1500 ALKYL-DIHYDR[…] SYNTHASE, vehicle control = 1): 0.97
fold change (protein TB427.06.3500 ENDOSOMAL T[…] RME-8, PUTATIVE, vehicle control = 1): 0.71
